Results reported in patent US8895578B2, “Carboxamide, sulfonamide and amine compounds and methods for using the same” (Rigel Pharmaceuticals, Inc., priority 2007, dated 2014).

target: AMPK; assay: AMPK activation, enzyme-linked immunosorbent assay; assay type: biochemical; details: Table 2, ELISA
Protocol: Compounds 1-54 were assayed for their ability to activate AMPK using an enzyme-linked immunosorbent assay.
Compounds 55-62 of Table 1 were assayed for their ability to activate AMPK using an enzyme-linked immunosorbent assay.
Compounds 63-66 of Table 1 were assayed for their ability to activate AMPK using an enzyme-linked immunosorbent assay.
Compounds 67-71 of Table 1 were assayed for their ability to activate AMPK using an enzyme-linked immunosorbent assay.
Compound 72 of Table 1 was assayed for its ability to activate AMPK using an enzyme-linked immunosorbent assay.

SMILES | EC50
O=C(NC1CCN(Cc2cccnc2)CC1)c1ccc2[nH]c3c(c2c1)CN(c1ccc(F)cc1)CC3 [Compound 36, 2-(4-fluorophenyl)-N-(1-(pyridin-3-ylmethyl)piperidin-4-yl)-2,3,4,5-tetrahydro-1H-pyrido[4,3-b]indole-8-carboxamide] | > 100 µM
O=C(NC1CCN(Cc2ccc(C(F)(F)F)cc2)CC1)c1ccc2[nH]c3c(c2c1)CN(c1ccc(F)cc1)CC3 [Compound 37, 2-(4-fluorophenyl)-N-(1-(4-(trifluoromethyl)benzyl)piperidin-4-yl)-2,3,4,5-tetrahydro-1H-pyrido[4,3-b] indole-8-carboxamide] | 5 to 10 µM
CC(C)(C)OC(=O)N1CCC(NC(=O)c2ccc3[nH]c4c(c3c2)CN(c2ccc(F)cc2)CC4)CC1 [Compound 38, tert-butyl 4-(2-(4-fluorophenyl)-2,3,4,5-tetrahydro-1H-pyrido[4,3-b]indole-8-carboxamido) piperidine-1-carboxylate] | 10 to 50 µM
O=C(NC1CCN(C(=O)c2ccc(F)cc2)CC1)c1ccc2[nH]c3c(c2c1)CN(c1ccc(F)cc1)CC3 [Compound 39, N-(1-(4-fluorobenzoyl)piperidin-4-yl)-2-(4-fluorophenyl)-2,3,4,5-tetrahydro-1H-pyrido [4,3-b]indole-8-carboxamide] | 10 to 50 µM
O=C(NC1CCN(C(=O)c2cccnc2)CC1)c1ccc2[nH]c3c(c2c1)CN(c1ccc(F)cc1)CC3 [Compound 40, 2-(4-fluorophenyl)-N-(1-nicotinoylpiperidin-4-yl)-2,3,4,5-tetrahydro-1H-pyrido[4,3-b]indole-8-carboxamide] | > 100 µM
O=C(NC1CCN(C(=O)c2ccc(C(F)(F)F)cc2)CC1)c1ccc2[nH]c3c(c2c1)CN(c1ccc(F)cc1)CC3 [Compound 41, 2-(4-fluorophenyl)-N-(1-(4-(trifluoromethyl)benzoyl)piperidin-4-yl)-2,3,4,5-tetrahydro-1H-pyrido[4,3-b] indole-8-carboxamide] | 10 to 50 µM
CC(C)(C)OC(=O)N1CCC(NC(=O)c2ccc3[nH]c4c(c3c2)CN(Cc2ccc(C(N)=O)cc2)CC4)CC1 [Compound 43, tert-butyl 4-(2-(4-carbamoyl-benzyl)-2,3,4,5-tetrahydro-1H-pyrido[4,3-b]indole-8-carboxamido)piperidine-1-carboxylate] | > 100 µM
N#Cc1ccc(CN2CCC(NC(=O)c3ccc4[nH]c5c(c4c3)CN(Cc3ccc(C(N)=O)cc3)CC5)CC2)cc1 [Compound 44, 2-(4-carbamoylbenzyl)-N-(1-(4-cyanobenzyl)piperidin-4-yl)-2,3,4,5-tetrahydro-1H-pyrido[4,3-b]indole-8-carboxamide] | 10 to 50 µM
NC(=O)c1ccc(CN2CCc3[nH]c4ccc(C(=O)NC5CCN(Cc6ccncc6)CC5)cc4c3C2)cc1 [Compound 45, 2-(4-carbamoylbenzyl)-N-(1-(pyridin-4-ylmethyl)piperidin-4-yl)-2,3,4,5-tetrahydro-1H-pyrido [4,3-b]indole-8-carboxamide] | > 100 µM
NC(=O)c1ccc(CN2CCc3[nH]c4ccc(C(=O)NC5CCN(C(=O)c6ccncc6)CC5)cc4c3C2)cc1 [Compound 46, 2-(4-carbamoylbenzyl)-N-(1-isonicotinoylpiperidin-4-yl)-2,3,4,5-tetrahydro-1H-pyrido[4,3-b]indole-8-carboxamide] | > 100 µM
NC(=O)c1ccc(CN2CCc3[nH]c4ccc(C(=O)NC5CCN(Cc6ccc(C(F)(F)F)cc6)CC5)cc4c3C2)cc1 [Compound 47, 2-(4-carbamoylbenzyl)-N-(1-(4-(trifluoromethyl)benzyl)piperidin-4-yl)-2,3,4,5-tetrahydro-1H-pyrido[4,3-b]indole-8-carboxamide] | 10 to 50 µM
NC(=O)c1ccc(CN2CCc3[nH]c4ccc(C(=O)NC5CCN(Cc6ccc(F)cc6)CC5)cc4c3C2)cc1 [Compound 48, 2-(4-carbamoylbenzyl)-N-(1-(4-fluorobenzyl)piperidin-4-yl)-2,3,4,5-tetrahydro-1H-pyrido[4,3-b] indole-8-carboxamide] | > 100 µM
NC(=O)c1ccc(CN2CCC(NC(=O)c3ccc4[nH]c5c(c4c3)CN(Cc3ccc(C(N)=O)cc3)CC5)CC2)cc1 [Compound 49, 2-(4-carbamoylbenzyl)-N-(1-(4-carbamoylbenzyl)piperidin-4-yl)-2,3,4,5-tetrahydro-1H-pyrido [4,3-b]indole-8-carboxamide] | > 100 µM
O=C(NC1CCN(Cc2ccncc2)CC1)c1ccc2[nH]c3c(c2c1)CN(Cc1ccc(C(F)(F)F)cc1)CC3 [Compound 50, N-(1-(pyridin-4-ylmethyl)piperidin-4-yl)-2-(4-(trifluoromethyl)benzyl)-2,3,4,5-tetrahydro-1H-pyrido[4,3-b]indole-8-carboxamide] | < 0.5 µM
O=C(NC1CCN(C(=O)c2ccncc2)CC1)c1ccc2[nH]c3c(c2c1)CN(Cc1ccc(C(F)(F)F)cc1)CC3 [Compound 51, N-(1-isonicotinoyl-piperidin-4-yl)-2-(4-(trifluoromethyl)benzyl)-2,3,4,5-tetrahydro-1H-pyrido[4,3-b]indole-8-carboxamide] | 0.5 to 1 µM
NC(=O)c1ccc(CN2CCC(NC(=O)c3ccc4[nH]c5c(c4c3)CN(Cc3ccc(C(F)(F)F)cc3)CC5)CC2)cc1 [Compound 52, N-(1-(4-carbamoylbenzyl)piperidin-4-yl)-2-(4-(trifluoromethyl)benzyl)-2,3,4,5-tetrahydro-1H-pyrido[4,3-b]indole-8-carboxamide] | 1 to 5 µM
Cn1cnc(CN2CCC(NC(=O)c3ccc4[nH]c5c(c4c3)CN(Cc3ccc(C(F)(F)F)cc3)CC5)CC2)c1 [Compound 53, N-(1-((1-methyl-1H-imidazol-4-yl)methyl)piperidin-4-yl)-2-(4-(trifluoromethyl)benzyl)-2,3,4,5-tetrahydro-1H-pyrido[4,3-b]indole-8-carboxamide] | 10 to 50 µM
O=C(NC1CCN(Cc2cocn2)CC1)c1ccc2[nH]c3c(c2c1)CN(Cc1ccc(C(F)(F)F)cc1)CC3 [Compound 54, N-(1-(oxazol-4-ylmethyl)piperidin-4-yl)-2-(4-(trifluoromethyl)benzyl)-2,3,4,5-tetrahydro-1H-pyrido[4,3-b]indole-8-carboxamide] | < 0.5 µM

same assay, conditions: Table 3, ELISA

SMILES | EC50
O=C(NC1CCN(Cc2ccccc2)CC1)c1ccc(CN2CCN(Cc3ccccc3)CC2)cc1 [Compound 55, 4-((4-benzylpiperazin-1-yl)methyl)-N-(1-benzyl-piperidin-4-yl)benzamide] | < 0.1 µM
O=C(NC1CCN(Cc2ccccc2)CC1)c1ccc(CN2CCN(CC3CCCCC3)CC2)cc1 [Compound 56, N-(1-benzylpiperidin-4-yl)-4-((4-(cyclohexyl-methyl)piperazin-1-yl)methyl)benzamide] | 1 to 10 µM
O=C(NC1CCN(Cc2ccccc2)CC1)c1ccc(CN2CCN(c3ccc(C(F)(F)F)cn3)CC2)cc1 [Compound 57, N-(1-benzylpiperidin-4-yl)-4-((4-(5-(trifluoro-methyl)pyridin-2-yl)piperazin-1-yl)methyl) benzamide] | < 0.1 µM
O=C(NC1CCN(Cc2ccccc2)CC1)c1ccc(CN2CCN(c3ccccn3)CC2)cc1 [Compound 58, N-(1-benzylpiperidin-4-yl)-4-((4-(pyridin-2-yl)piperazin-1-yl)methyl) benzamide] | 1 to 10 µM
O=C(NC1CCN(Cc2ccncc2)CC1)c1ccc(CN2CCN(Cc3ccccc3)CC2)cc1 [Compound 59, 4-((4-benzylpiperazin-1-yl)methyl)-N-(1-(pyridin-4-ylmethyl)piperidin-4-yl)benzamide] | 0.1 to 0.5 µM
O=C(NC1CCN(Cc2cccnc2)CC1)c1ccc(CN2CCN(Cc3ccccc3)CC2)cc1 [Compound 60, 4-((4-benzylpiperazin-1-yl)methyl)-N-(1-(pyridin-3-ylmethyl)piperidin-4-yl) benzamide] | 0.1 to 0.5 µM
N#Cc1ccc(CN2CCC(NC(=O)c3ccc(CN4CCN(Cc5ccccc5)CC4)cc3)CC2)cc1 [Compound 61, 4-((4-benzylpiperazin-1-yl)methyl)-N-(1-(4-cyanobenzyl)piperidin-4-yl)benzamide] | < 0.1 µM
O=C(NC1CCN(Cc2ccc(C(F)(F)F)cc2)CC1)c1ccc(CN2CCN(Cc3ccccc3)CC2)cc1 [Compound 62, 4-((4-benzylpiperazin-1-yl)methyl)-N-(1-(4-trifluoromethylbenzyl)piperidin-4-yl) benzamide] | < 0.1 µM

same assay, conditions: Table 4, ELISA

SMILES | EC50
O=C(NC1CCN(Cc2ccccc2)CC1)c1ccc2cc(OC3CCN(Cc4ccc(C(F)(F)F)cc4)CC3)ccc2c1 [Compound 63, N-(1-benzylpiperidin-4-yl)-6-(1-(4-(trifluoro-methyl)benzyl)piperidin-4-yloxy)-2-naphthamide] | < 0.5 µM
N#Cc1ccc(CN2CCC(Oc3ccc4cc(C(=O)NC5CCN(Cc6ccccc6)CC5)ccc4c3)CC2)cc1 [Compound 64, N-(1-benzylpiperidin-4-yl)-6-(1-(4-cyano-benzyl)piperidin-4-yloxy)-2-naphthamide] | < 0.5 µM
O=C(NC1CCN(Cc2ccccc2)CC1)c1ccc2cc(OC3CCN(c4ccc(C(F)(F)F)cc4)CC3)ccc2c1 [Compound 65, N-(1-benzylpiperidin-4-yl)-6-(1-(4-(trifluoro-methyl)phenyl)piperidin-4-yloxy)-2-naphthamide] | 1 to 5 µM
CC(C)(C)OC(=O)N1CCC(NC(=O)c2ccc3ccc(OC4CCN(c5ccc(C(F)(F)F)cc5)CC4)cc3c2)CC1 [Compound 66, tert-butyl 4-(7-(1-(4-(trifluoromethyl)phenyl)piperidin-4-yloxy)-2-naphthamido)piperidine-1-carboxylate] | 1 to 5 µM

same assay, conditions: Table 5, ELISA

SMILES | EC50
CC(C)(C)OC(=O)N1CCC(NC(=O)c2cnc3ccc(OC4CCN(c5ccc(C(F)(F)F)cc5)CC4)cc3c2)CC1 [Compound 67, tert-butyl 4-(6-(1-(4-(trifluoromethyl)phenyl)piperidin-4-yloxy)quinoline-3-carboxamido)piperidine-1-carboxylate] | 0.1 to 0.5 µM
O=C(NC1CCNCC1)c1cnc2ccc(OC3CCN(c4ccc(C(F)(F)F)cc4)CC3)cc2c1 [Compound 68, N-(piperidin-4-yl)-6-(1-(4-(trifluoromethyl)phenyl)piperidin-4-yloxy) quinoline-3-carboxamide] | > 5 µM
